According to paper PMC4216756 (Clinical cancer research : an official journal of the …, 2014):
“And” between values parts separate entries of the source, which are not always exact repeats. Equal values may be shown once. Read-outs that look alike come from different tables or passages of the source.

Experiments:
[1] = tested on: Regulatory T cells and CD8+ T cells; assay: T cell subsets and immune markers in PBMC by flow cytometry; assay type: in vivo, human
[2] = tested on: protein acetylation, tubulin acetylation, p21 in PBMC; assay: Protein/tubulin acetylation and p21 in PBMC by multiparametric flow cytometry; assay type: in vivo, human
[3] = cited from earlier work
[4] = Plasma pharmacokinetics of belinostat, 48-hr CIVI, cycle 1; assay type: in vivo, human; settings: for clearance / half-life: human, plasma, intravenous; for half-life: cycle 1, n=25
thymic epithelial tumors = assay: Phase I/II efficacy; assay type: in vivo, human
[5] = tested on: patients with advanced thymic epithelial tumors; assay: Phase I dose escalation; assay type: in vivo, human
Thymic carcinoma = assay: Phase I/II efficacy; assay type: in vivo, human; settings: belinostat + PAC
TETs = settings: single-agent belinostat, cited from earlier work
Thymoma = assay: Phase I/II efficacy; assay type: in vivo, human; settings: belinostat + PAC
[6] = following belinostat plus chemotherapy, p<0.0001
[7] = 23 evaluable patients treated at dose level 1
[8] = belinostat + PAC, Total, 25 evaluable patients

## O=C(/C=C/c1cccc(S(=O)(=O)Nc2ccccc2)c1)NO [belinostat, N-hydroxy-3-(phenylsulphamoylphenyl) acrylamide]
[1]; after belinostat alone, p=0.0078
  Fraction of CTLA4-expressing Tregs: increased significantly
[1]; after belinostat plus chemotherapy, p<0.0001
  Fraction of CTLA4-expressing Tregs: increased significantly
[1]; following belinostat alone vs baseline, p < 0.0001
  TIM3+ CD8+T cells: decreased significantly
[1]; following belinostat alone vs baseline, p=0.01
  PD-1+ CD8+ T cells: decreased significantly
[1]; following belinostat alone, p=0.0009
  Number of Tregs: decreased significantly
[1]; [6]
  Number of Tregs: decreased significantly
[1]; following belinostat with chemotherapy vs baseline, p <0.0001
  TIM3+ CD8+T cells: decreased significantly
[1]; patients with greater decline in Tregs post-combination therapy
  Median progression-free survival: not reached
[1]; patients with greater decline in post-combination therapy TIM3+ CD8+T cells
  Median progression-free survival: not reached
[1]; patients with higher pre-treatment CTLA4-expressing Tregs
  Median OS: 18.8 months
[1]; patients with lesser decreases in TIM3+ CD8+T cells
  Median progression-free survival: 7.8 months
[1]; patients with lower pre-treatment CTLA4-expressing Tregs
  Median OS: 37.5 months
[2]; 21 of 23 patients, after belinostat
  Patients with increase in total protein hyperacetylation of CD3+ cells: 91%
[2]; after belinostat
  Increase in total protein hyperacetylation of CD3+ cells, median: 2.5 fold
[2]; after belinostat alone, p=0.019
  p21 expression in CD14+ cells: increased
[2]; after belinostat, p<0.0001
  PBMC acetylated tubulin: increased significantly
  Total protein hyperacetylation of CD3+ cells: increased significantly
[2]; after belinostat, p= 0.026
  Total protein hyperacetylation of CD14+ cells: increased only marginally
[2]; [6]
  p21 expression in CD14+ cells: increased
[2]; following belinostat plus chemotherapy, p=0.0001
  PBMC acetylated tubulin: increased significantly
[3]; administered IV with paclitaxel and carboplatin
  Elimination half-life: 102 min
[3]; administration over 30 minutes
  Elimination half-life: 31.2 to 32.4 min
[3]; orally alone
  Elimination half-life: 114 min
[4]; 250 mg/m^2 per 12-h infusion, with PAC
  Plasma concentration of belinostat during the 48-hour infusion: around 1 μM
[4]; Clearance, range, 48-hr CIVI, cycle 1, all patients
  clearance: 683 to 13200 mL/min
[4]; Clearance, range, after excluding outlier patient
  clearance: 683 to 3350 mL/min
[4]; Half-life, range, 48-hr CIVI
  half-life: 12 to 54.6 min
[4]; Mean clearance, 48-hr CIVI, cycle 1, all patients
  clearance: 2220 mL/min
[4]; Mean half-life, 48-hr CIVI
  half-life: 28.2 min
[4]; Total systemic clearance, the only patient with high serum creatinine (1.43 mg/dL)
  clearance: 1770 mL/min
[4]; in vivo
  Differences in CMAX, AUCINF, clearance and half-life between genders and races: no statistically significant differences
Thymic epithelial tumors; 9 of 23 assessed after at least 4 cycles of belinostat + PAC
  Patients who underwent R0 or R1 resection: 39%
Thymic epithelial tumors; [7]
  Patients with PD: 4%
  Patients with PRs: 30%
Thymic epithelial tumors; 23 evaluable patients treated at dose level 1 (belinostat 1000 mg/m^2 + PAC)
  Patients with CR: 4%
Thymic epithelial tumors; Six of 23, after multimodality therapy
  Patients with no evidence of disease at the time of reporting: 26%
Thymic epithelial tumors; belinostat + PAC, Total
  Median progression-free survival: 9 months and 9.0 months
Thymic epithelial tumors; [8]
  Complete response: 1 (4) n (%)
  Disease control rate (95% confidence interval): 96 (79.7 –99.9) %
  Objective Response Rate (95% confidence interval): 40 (21.1 –61.3) %
  Partial Response: 9 (36) n (%)
  Progressive Disease: 1 (4) n (%)
  Stable Disease: 14 (56) n (%)
Thymic epithelial tumors; belinostat + PAC, Total, median potential follow up 20.5 months
  Median overall survival: 28.5 months
[5]; 2000 mg/m^2 belinostat (dose level 2) with PAC, in two patients
  Dose-limiting toxicities: grade 3 nausea and diarrhea and grade 4 neutropenia and thrombocytopenia
[5]; CIVI over 48 hours with PAC, 3-week cycles
  Maximum-tolerated dose (MTD) of belinostat: 1000 mg/m^2
Thymic carcinoma
  Median overall survival: 21.4 months
  Median progression-free survival: 7.2 months
Thymic carcinoma; 14 evaluable patients
  Complete response: 0 n (%)
  Disease control rate (95% confidence interval): 93 (66.1–99.8) %
  Objective Response Rate (95% confidence interval): 21 (4.7–50.8) %
  Partial Response: 3 (21) n (%)
  Progressive Disease: 1 (7) n (%)
TETs; of 41 patients
  Patients with stable disease: 25 patients
TETs; overall population
  Median overall survival: 19.1 months
  Median time to progression: 5.8 months
TETs
  Responses in patients with thymic carcinoma: no responses
Thymoma
  Median DOR: not reached
  Median overall survival: Not reached
  Median progression-free survival: Not reached
Thymoma; 11 evaluable patients
  Complete response: 1 (9) n (%)
  Disease control rate (95% confidence interval): 100 (71.5–100.0) %
  Objective Response Rate (95% confidence interval): 64 (30.8–89.1) %
  Partial Response: 6 (55) n (%)
  Progressive Disease: 0 n (%)
